These results are taken from ChEMBL document CHEMBL5360622, “Leucettinibs, a Class of DYRK/CLK Kinase Inhibitors Inspired by the Marine Sponge Natural Product Leucettamine B” (J Med Chem, 2023).

Molecules are shown by their SMILES.

For assay [1], the target named is Dual specificity protein kinase CLK1 (Homo sapiens, UniProt P49759). Type of assay: cell-based, Sf9.
The target of assay [2] is T1, Dual specificity tyrosine-phosphorylation-regulated kinase 4 (Homo sapiens, UniProt Q9NR20).
T1 sequence (Q9NR20 whole entry): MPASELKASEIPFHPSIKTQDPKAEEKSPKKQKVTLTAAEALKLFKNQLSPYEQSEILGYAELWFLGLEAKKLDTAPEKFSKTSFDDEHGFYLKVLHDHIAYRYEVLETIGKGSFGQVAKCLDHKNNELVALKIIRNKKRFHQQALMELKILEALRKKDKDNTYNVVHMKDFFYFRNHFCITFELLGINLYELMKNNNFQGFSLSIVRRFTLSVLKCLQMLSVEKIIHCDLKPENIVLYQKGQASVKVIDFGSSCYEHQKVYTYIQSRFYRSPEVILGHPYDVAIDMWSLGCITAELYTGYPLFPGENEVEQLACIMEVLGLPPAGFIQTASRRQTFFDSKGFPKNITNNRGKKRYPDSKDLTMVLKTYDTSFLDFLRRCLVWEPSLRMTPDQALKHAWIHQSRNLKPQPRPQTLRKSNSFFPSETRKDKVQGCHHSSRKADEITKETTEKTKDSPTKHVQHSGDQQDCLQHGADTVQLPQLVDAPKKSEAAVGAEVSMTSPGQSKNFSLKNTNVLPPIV

Assay [3] concerns the target Cyclin-dependent kinase 5/CDK5 activator 1 (Homo sapiens, UniProt Q00535). The format is cell-based, Sf9.
Assay [4] concerns the target T2, Dual specificity tyrosine-phosphorylation-regulated kinase 2 (Homo sapiens, UniProt Q92630).
T2 sequence (Q92630 whole entry): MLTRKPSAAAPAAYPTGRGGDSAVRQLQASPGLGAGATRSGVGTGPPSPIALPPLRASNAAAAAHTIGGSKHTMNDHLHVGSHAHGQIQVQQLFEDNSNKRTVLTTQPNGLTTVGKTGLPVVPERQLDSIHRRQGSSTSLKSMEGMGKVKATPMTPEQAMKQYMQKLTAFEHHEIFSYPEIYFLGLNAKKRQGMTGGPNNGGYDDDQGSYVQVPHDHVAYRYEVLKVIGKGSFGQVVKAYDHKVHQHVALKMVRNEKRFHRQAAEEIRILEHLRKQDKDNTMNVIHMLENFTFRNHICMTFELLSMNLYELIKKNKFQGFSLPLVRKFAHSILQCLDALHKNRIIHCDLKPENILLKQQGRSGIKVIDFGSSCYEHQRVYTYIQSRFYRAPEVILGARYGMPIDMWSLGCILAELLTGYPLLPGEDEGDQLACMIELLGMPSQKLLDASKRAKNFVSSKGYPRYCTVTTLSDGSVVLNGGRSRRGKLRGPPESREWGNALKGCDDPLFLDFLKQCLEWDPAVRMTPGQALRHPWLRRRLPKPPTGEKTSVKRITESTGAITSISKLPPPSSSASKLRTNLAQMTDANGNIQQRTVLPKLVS

In assay [5] the target is Glycogen synthase kinase-3 beta (Homo sapiens, UniProt P49841). Type of assay: cell-based, Sf9.
In assay [6] the target is Casein kinase I isoform epsilon (Homo sapiens, UniProt P49674).
The target of assay [7] is Dual specificity protein kinase CLK3 (Homo sapiens, UniProt P49761). Type of assay: cell-based, Sf9.
For assay [8], the target named is T3, Dual specificity tyrosine-phosphorylation-regulated kinase 3 (Homo sapiens, UniProt O43781).
T3 sequence (O43781 whole entry): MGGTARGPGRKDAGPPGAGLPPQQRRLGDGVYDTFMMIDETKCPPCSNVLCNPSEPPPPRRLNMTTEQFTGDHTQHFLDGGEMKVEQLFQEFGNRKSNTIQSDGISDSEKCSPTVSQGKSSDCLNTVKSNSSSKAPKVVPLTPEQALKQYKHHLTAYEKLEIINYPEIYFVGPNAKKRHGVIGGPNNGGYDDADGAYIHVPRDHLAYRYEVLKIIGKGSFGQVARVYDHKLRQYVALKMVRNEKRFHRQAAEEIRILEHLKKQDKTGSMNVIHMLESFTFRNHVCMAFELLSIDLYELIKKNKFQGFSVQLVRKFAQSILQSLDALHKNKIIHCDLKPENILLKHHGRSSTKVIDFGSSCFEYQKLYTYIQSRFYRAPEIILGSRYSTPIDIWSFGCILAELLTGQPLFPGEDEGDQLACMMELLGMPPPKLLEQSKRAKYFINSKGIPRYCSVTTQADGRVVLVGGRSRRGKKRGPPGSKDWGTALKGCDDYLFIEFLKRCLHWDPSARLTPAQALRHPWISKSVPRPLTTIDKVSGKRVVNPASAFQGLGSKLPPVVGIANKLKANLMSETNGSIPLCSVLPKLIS

Assay [9] deals with Dual specificity protein kinase CLK2 (Homo sapiens, UniProt P49760).
Assay [10] addresses Dual specificity protein kinase CLK4 (Homo sapiens, UniProt Q9HAZ1).

Dual specificity protein kinase CLK3, sequence (P49761 whole entry): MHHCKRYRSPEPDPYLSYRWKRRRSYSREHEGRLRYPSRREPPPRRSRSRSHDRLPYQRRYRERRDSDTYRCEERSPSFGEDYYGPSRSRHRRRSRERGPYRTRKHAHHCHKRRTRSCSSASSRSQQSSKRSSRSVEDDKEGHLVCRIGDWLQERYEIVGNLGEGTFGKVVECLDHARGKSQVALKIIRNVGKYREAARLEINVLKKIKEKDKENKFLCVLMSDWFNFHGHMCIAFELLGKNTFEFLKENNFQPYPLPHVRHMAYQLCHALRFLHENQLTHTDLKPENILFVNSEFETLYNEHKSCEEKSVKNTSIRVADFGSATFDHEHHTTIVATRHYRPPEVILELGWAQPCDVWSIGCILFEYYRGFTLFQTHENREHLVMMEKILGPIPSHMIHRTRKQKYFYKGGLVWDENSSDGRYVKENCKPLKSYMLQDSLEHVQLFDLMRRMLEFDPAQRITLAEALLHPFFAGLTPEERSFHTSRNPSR
Dual specificity protein kinase CLK1, sequence (P49759 whole entry): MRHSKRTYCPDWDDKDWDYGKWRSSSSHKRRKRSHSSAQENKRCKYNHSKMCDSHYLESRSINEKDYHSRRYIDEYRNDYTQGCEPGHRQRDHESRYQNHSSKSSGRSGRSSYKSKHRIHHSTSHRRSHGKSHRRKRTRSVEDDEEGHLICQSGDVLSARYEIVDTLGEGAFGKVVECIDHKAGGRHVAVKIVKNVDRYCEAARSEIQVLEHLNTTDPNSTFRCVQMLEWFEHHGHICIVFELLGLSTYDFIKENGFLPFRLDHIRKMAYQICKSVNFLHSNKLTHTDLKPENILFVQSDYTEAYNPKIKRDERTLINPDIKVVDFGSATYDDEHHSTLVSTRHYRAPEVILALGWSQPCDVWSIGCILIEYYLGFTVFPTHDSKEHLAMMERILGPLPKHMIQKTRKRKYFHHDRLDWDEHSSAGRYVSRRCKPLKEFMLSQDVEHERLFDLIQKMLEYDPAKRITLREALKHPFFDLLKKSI
Casein kinase I isoform epsilon, sequence (P49674 whole entry, canonical isoform): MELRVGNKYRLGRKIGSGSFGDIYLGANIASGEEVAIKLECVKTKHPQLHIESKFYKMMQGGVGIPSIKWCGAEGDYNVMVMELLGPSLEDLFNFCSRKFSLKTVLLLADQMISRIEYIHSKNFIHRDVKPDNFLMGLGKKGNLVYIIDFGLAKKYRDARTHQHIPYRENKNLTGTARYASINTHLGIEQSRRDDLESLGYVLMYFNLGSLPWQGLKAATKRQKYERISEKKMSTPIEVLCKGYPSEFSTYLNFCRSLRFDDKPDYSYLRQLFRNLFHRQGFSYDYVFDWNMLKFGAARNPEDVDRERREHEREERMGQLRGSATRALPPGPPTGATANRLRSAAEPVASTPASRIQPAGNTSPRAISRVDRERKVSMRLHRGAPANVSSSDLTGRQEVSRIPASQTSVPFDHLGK
Cyclin-dependent kinase 5/CDK5 activator 1, sequence (Q00535 whole entry): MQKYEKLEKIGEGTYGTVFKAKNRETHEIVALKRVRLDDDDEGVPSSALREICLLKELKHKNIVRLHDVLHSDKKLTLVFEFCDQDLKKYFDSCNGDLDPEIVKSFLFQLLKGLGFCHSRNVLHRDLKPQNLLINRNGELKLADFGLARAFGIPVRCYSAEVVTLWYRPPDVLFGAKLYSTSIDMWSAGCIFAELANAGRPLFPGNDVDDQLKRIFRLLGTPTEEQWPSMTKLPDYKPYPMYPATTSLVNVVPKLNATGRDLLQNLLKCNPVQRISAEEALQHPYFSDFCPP
Cyclin-dependent kinase 5/CDK5 activator 1, sequence (Q15078 whole entry, further chain): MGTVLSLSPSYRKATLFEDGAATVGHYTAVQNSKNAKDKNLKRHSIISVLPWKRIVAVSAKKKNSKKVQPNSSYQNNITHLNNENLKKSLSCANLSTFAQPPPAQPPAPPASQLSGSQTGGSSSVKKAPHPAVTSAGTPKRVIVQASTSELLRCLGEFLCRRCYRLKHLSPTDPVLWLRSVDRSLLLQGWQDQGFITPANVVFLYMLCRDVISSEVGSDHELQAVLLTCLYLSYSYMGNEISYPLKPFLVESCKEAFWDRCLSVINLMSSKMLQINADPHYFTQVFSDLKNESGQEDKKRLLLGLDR
Glycogen synthase kinase-3 beta, sequence (P49841 whole entry, canonical isoform): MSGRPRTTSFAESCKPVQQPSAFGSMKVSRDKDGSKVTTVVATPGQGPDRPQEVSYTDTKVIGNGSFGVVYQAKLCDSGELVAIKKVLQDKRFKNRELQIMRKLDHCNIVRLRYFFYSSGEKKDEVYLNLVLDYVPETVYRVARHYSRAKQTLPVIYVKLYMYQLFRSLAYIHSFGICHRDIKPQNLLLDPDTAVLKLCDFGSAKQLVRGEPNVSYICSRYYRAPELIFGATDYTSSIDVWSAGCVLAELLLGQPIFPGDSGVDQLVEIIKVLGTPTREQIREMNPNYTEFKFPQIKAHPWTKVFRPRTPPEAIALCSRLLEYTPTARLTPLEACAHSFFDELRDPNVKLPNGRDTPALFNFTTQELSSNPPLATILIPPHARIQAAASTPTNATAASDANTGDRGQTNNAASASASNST
Dual specificity protein kinase CLK4, sequence (Q9HAZ1 whole entry): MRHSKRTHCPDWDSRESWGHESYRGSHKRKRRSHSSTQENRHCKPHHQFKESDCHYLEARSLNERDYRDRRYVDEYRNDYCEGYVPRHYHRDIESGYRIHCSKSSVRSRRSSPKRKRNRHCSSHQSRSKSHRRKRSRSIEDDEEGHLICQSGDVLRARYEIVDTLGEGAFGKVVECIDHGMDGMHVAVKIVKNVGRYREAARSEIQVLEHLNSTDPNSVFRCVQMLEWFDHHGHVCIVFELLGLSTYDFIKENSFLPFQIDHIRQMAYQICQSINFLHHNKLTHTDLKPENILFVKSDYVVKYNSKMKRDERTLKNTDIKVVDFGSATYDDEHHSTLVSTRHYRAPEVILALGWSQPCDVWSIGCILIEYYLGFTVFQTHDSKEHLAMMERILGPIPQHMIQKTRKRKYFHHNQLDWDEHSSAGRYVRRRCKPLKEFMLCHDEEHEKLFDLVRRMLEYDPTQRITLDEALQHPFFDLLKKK
Dual specificity protein kinase CLK2, sequence (P49760 whole entry): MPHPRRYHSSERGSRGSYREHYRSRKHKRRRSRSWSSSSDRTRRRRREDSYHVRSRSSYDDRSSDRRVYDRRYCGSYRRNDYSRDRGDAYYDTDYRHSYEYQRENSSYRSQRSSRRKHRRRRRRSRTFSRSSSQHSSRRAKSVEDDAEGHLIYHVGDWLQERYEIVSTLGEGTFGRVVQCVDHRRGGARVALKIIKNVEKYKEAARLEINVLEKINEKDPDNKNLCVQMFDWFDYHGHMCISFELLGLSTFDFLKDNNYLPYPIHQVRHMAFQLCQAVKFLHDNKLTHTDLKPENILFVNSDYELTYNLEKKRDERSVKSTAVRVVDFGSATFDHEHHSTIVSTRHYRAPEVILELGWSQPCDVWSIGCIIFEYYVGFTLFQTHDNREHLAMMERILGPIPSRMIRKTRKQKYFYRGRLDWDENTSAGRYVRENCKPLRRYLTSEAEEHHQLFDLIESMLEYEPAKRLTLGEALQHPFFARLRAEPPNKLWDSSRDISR

Consider `O=C1NC(NC[C@H](O)c2ccccc2)=N/C1=C\c1ccc2ncsc2c1`, for which the IC50 (in general, the concentration that gives 50% inhibition) was 12 nM in assay [1]; 4320 nM in [2]; > 10000 nM in assay [3]; 417 nM in [4]; > 10000 nM in assay [5].

For `COC(=O)[C@@H](NC1=N/C(=C\c2ccc3ncsc3c2)C(=O)N1)C(C)C`, the half-maximal inhibitory concentration (IC50) was 16 nM in assay [1]; > 10000 nM in [6]; 791 nM in assay [7]; > 10000 nM in [3]; 328 nM in assay [4]; 8240 nM in assay [5]. The IC50 in assay [8] turned out to be 560 nM.

Turning to `O=C1NC(NC2CCOCC2)=N/C1=C\c1ccc2ncsc2c1`, the IC50 in assay [1] is 24 nM; in [6], > 10000 nM; in [7], 1280 nM; in assay [2], 1260 nM; in assay [3], > 10000 nM; in assay [5] it was > 10000 nM. The compound also gave an IC50 in assay [8] of 1670 nM.

On to `CC(C)C[C@H](CO)NC1=N/C(=C\c2ccc3ncsc3c2)C(=O)N1`, for which the 50% inhibitory concentration (IC50) in assay [1] is 19 nM; in assay [6], > 10000 nM; in assay [7], 484 nM; in assay [2] it was 764 nM; in assay [3], > 10000 nM; in assay [4] it was 953 nM. In addition, the IC50 in assay [5] was found to be 2520 nM; in [8], 394 nM.

In the case of `O=C1CC[C@H](NC2=N/C(=C\c3ccc4ncsc4c3)C(=O)N2)CN1`, the IC50 in assay [6] is > 10000 nM; in [7] it was 1160 nM; in assay [2], 3260 nM; in assay [3], > 10000 nM; in assay [4], 664 nM; in assay [5], 8180 nM. Moreover, the IC50 was determined as 469 nM in assay [9], 346 nM in assay [8] and 22 nM in assay [10].

Consider `O=C1NC(NC[C@@H](O)c2ccccc2)=N/C1=C\c1ccc2ncsc2c1`, for which the IC50 is 13 nM in assay [1]; 181 nM in assay [2]; > 10000 nM in assay [3]; 16 nM in assay [4]; 2600 nM in [5].

On to `COC(=O)[C@H](Cc1ccccc1)NC1=N/C(=C\c2ccc3ncsc3c2)C(=O)N1`, for which the IC50 in assay [1] is 28 nM; in [6], > 10000 nM; in [7], 1850 nM; in [2], 445 nM; in assay [3], > 10000 nM; in [4], 216 nM. In addition, the IC50 in assay [5] was > 10000 nM.

As for `CN1CCCC(NC2=N/C(=C\c3ccc4ncsc4c3)C(=O)N2)C1=O` (racemic), the IC50 in assay [6] is > 10000 nM; in [7], 2810 nM; in [2], 6080 nM; in assay [3] it was > 10000 nM; in assay [4], 3300 nM; in assay [5], > 10000 nM. The IC50 in assay [9] was 416 nM; in assay [8], 2980 nM; in [10] it was 27 nM.

For the compound `O=C1NC(NC2CCCNC2=O)=N/C1=C\c1ccc2ncsc2c1` (racemic), the IC50 was > 10000 nM in assay [6]; 1680 nM in [7]; 7290 nM in assay [2]; > 10000 nM in assay [3]; 2090 nM in assay [4]; > 10000 nM in [5]. Besides, the figures for the IC50 in assay [9], in [8] and in [10] were 1320 nM, 2800 nM and 35 nM, respectively.

Take `CCCCCCc1ccc(NC2=N/C(=C\c3ccc4ncsc4c3)C(=O)N2)cc1`: the IC50 in assay [6], in assay [7], in [2], in assay [3], in assay [4] and in assay [5] was > 10000 nM throughout. For the same compound, the values for the IC50 in [9], in [8] and in assay [10] were 14200 nM, > 10000 nM and 3130 nM, respectively.

Consider `COC(=O)[C@@H](Cc1ccccc1)NC1=N/C(=C\c2ccc3ncsc3c2)C(=O)N1`, for which the concentration for half-maximal inhibition (IC50) was 122 nM in assay [1]; > 10000 nM in assay [6]; > 10000 nM in assay [7]; 6820 nM in assay [2]; > 10000 nM in [3]; 8380 nM in assay [4]. Besides, the IC50 in assay [5] is > 10000 nM.

For the compound `O=C1NC(Nc2ccc(N3CCOCC3)cc2)=N/C1=C\c1ccc2ncsc2c1`, the IC50 in assay [6], in assay [7], in assay [2], in [3], in assay [4] and in assay [5] was > 10000 nM each time. Besides, the IC50 in [9] was > 10000 nM; in [8], > 10000 nM; in [10], 4930 nM.

In the case of `CN(C)CC(NC1=N/C(=C\c2ccc3ncsc3c2)C(=O)N1)c1ccccc1` (racemic), the IC50 in assay [6] was > 10000 nM; in [7] it was 4120 nM; in assay [2], 8730 nM; in assay [3], > 10000 nM; in [4] it was > 10000 nM; in [5] it was 6770 nM. For the same compound, the IC50 in assay [9] came to 590 nM; in assay [8] it was 1500 nM; in assay [10] it was 104 nM.

Turning to `CC(NC1=N/C(=C\c2ccc3ncsc3c2)C(=O)N1)C12CC3CC(CC(C3)C1)C2` (racemic), the IC50 is > 10000 nM in assay [6]; 5110 nM in assay [7]; > 10000 nM in [2]; > 10000 nM in assay [3]; > 10000 nM in assay [4]; > 10000 nM in [5]. For the same compound, the IC50 in assay [9] was 1320 nM; in assay [8], > 10000 nM; in [10] it was 210 nM.

Regarding `Cc1nc2ccc(/C=C3\N=C(NC4CCCCCC4)NC3=O)cc2s1`, the IC50 was > 10000 nM in assay [6]; > 10000 nM in assay [7]; > 10000 nM in assay [2]; > 10000 nM in assay [3]; 2280 nM in assay [4]; > 10000 nM in [5]. For the same compound, the figures for the IC50 in assay [9], in assay [8] and in assay [10] were 5630 nM, 3260 nM and 34 nM, respectively.

For the compound `O=C1NC(NCc2ccccc2)=N/C1=C\c1ccc2ncsc2c1`, the IC50 in [6] was > 10000 nM; in [7], 280 nM; in assay [2] it was 1940 nM; in assay [3], 6110 nM; in assay [4] it was 1210 nM; in assay [5], 2150 nM. Further, the IC50 was 86 nM in [9], 1640 nM in [8] and 13 nM in assay [10].

In the case of `CC(C)(C)NC(=O)OC12CC3CC(CC(NC4=N/C(=C\c5ccc6ncsc6c5)C(=O)N4)(C3)C1)C2`, the IC50 is 5000 nM in [6]; 709 nM in [7]; 127 nM in [2]; > 10000 nM in [3]; 147 nM in assay [4]; 1800 nM in assay [5]. Moreover, the results for the IC50 in assay [9], in [8] and in assay [10] were 35 nM, 299 nM and 11 nM, respectively.

As to `CC(C)(C)OC[C@H](NC1=N/C(=C\c2ccc3ncsc3c2)C(=O)N1)c1ccccc1`, the IC50 in assay [1] is 18 nM; in assay [6], > 10000 nM; in assay [7] it was 2100 nM; in assay [3], > 10000 nM; in [4] it was 1720 nM; in [5] it was 9970 nM. The compound also yielded a half-maximal inhibitory concentration (IC50) in assay [9] of 121 nM.
